Experimental data as given in patent EP1655608A1, “CFTR as a component of an autophagy signaling pathway, applications thereof to autophagic diseases, and determination of cystic fibrosis as an autophagic disease” (priority 2004, dated 2006).

How the values were obtained:
Sertoli cells = test: Cell death and apoptotic features in Lindane-treated Sertoli cells; type: cell-based, mouse
Description: Autophagy was induced either by starvation or by treatment with Lindane under nutrient-rich condition. For Lindane treatment, cells were serum-starved for 2-16 hours in DMEM/Ham's F12 (1:1, GIBCO #61965-026: F12 GIBCO #31765-027) supplemented with either 1% Insulin-Transferrin-SeleniumA (GIBCO #51300-044) or 0.1% bovine serum albumin (A7030, Sigma) and treated with Lindane (50 µM, Sigma, H4500).
(§1) The ultrastructural changes caused by Lindane or starvation in Sertoli and renal cells were analysed by transmission electron microscopy, as previously described (57). […] Cell pellets were then rinsed in cacodylate buffer, postfixed in 1% OsO4 for 1 h at 4°C, dehydrated through graded ethanol washes, and embedded in epoxy resin. Oriented […] sections were obtained with diamond knives, and representative areas were chosen for ultra-thin sectioning. Thin 1-µm sections were mounted on copper mesh grids, stained with uranyl acetate and lead citrate, and examined on a JEOL 1200 EXII electron microscope. 30-50 micrographs were taken randomly from each sample at primary magnification × 10,000.

p38 = conditions: Lindane-treated cells; ref (38); cited from earlier work
CFTR Δex10 = test: Whole-cell patch-clamp Cl- currents in renal proximal PCT cells; type: cell-based, mouse
Description: Whole cell currents were monitored from Sertoli cells, CFTR^-/- and WT renal epithelial cells with an RK 400 amplifier (Biologic, Münster, Germany) as previously described (40). The bath (extracellular) solution consisted of 140 mM NMDGCl (N-methyl-D-glucamine chloride), 5 mM D-Glucose, 1 mM CaCl2, and 10 mM HEPES, pH 7.4. Patch pipette (intracellular) solution contained 140 mM NMDGCl, 5 mM D-Glucose, 5 mM EGTA, 5 mM MgATP, and 10 mM HEPES, pH 7.4. Osmolarity of both solutions was adjusted to 280 mOSM by adding mannitol. These solutions were designed to study Cl^- currents because Cl^- is the sole permeant ion in these conditions and to prevent Ca^2+ activated Cl^- currents by the addition of EGTA in the patch solution. After establishment of whole cell configuration, cells were stimulated by the addition of Lindane (50 µM), FSK (10 µM), vehicle (Me2S0 or ethanol) in the absence or the presence of NPPB (0.1mM), DIDS (4,4'-diisothiocyanatostilbene-2,2'-disulfonic acid, 1 mM, Sigma), glibenclamide (0.1mM, Sigma) or PD98059 (10 µM) in the bath solution. The cell membrane potential was clamped at -50mV and 400 ms pulses were applied from -100 to +120 mV with increments of 20 mV every 2 s. To generate whole cell current-voltage (I-V) relationship, membrane currents resulting from voltage stimuli were recorded for at least 3 min and analysed using an IBM-AT-compatible computer equipped with Digidata 1200 interface (Axon Instruments) and pCLAMP software (versions 5.51 and 6.0, Axon Instruments), respectively. Statistics-Results are expressed as mean ± S.E. of n observations using the Student's t test.

Sertoli 42GPA9 cells = test: Autophagic vacuolation of Sertoli cells (light, electron and confocal microscopy); type: cell-based, mouse
Description: Autophagy was induced either by starvation or by treatment with Lindane under nutrient-rich condition.
When bafilomycin A1 (BafA1, V-ATPase-specific inhibitor, 100 nM, Sigma); Park Davis Inhibitor PD98059 (MEK1-specific inhibitor, 10 µM, Cell Signaling), H89 (PKA inhibitor, 5 µM, Calbiochem), 3-Methyladenine (3 MA, autophagy-specific inhibitor, 10-30 mM, Sigma) or NPPB [5-nitro-2-(3-phenylpropylamino) benzoic acid, Cl^- channel blocker, 25 µM, Sigma] was used, it was added to the starvation medium for 90 min, prior to Lindane addition or nutrient deprivation.
as §1, with “Thin 1-µm sections were mounted on copper mesh grids, stained with uranyl acetate and lead citrate, and examined on a JEOL 1200 EXII electron microscope.” left out
Sertoli cells seeded on glass coverslips were transiently transfected with EGFP-Rab7 or MEK1^+-HA expression plasmids using Fugene 6 reagent (Roche), washed and allowed to recover overnight before addition of Lindane (50 µM). […] To determine the pH of the Lindane-induced vacuoles, living cells were stained with acridine-orange (5 µg/ml, Sigma), a membrane-permeable weak base whose fluorescence shifts from green at neutral pH to red in acidic compartments (59). 10 min later, cells were washed and directly observed under a confocal microscope.

## Cl[C@H]1[C@H](Cl)[C@@H](Cl)[C@@H](Cl)[C@H](Cl)[C@H]1Cl [Lindane, γ-hexachlorocyclohexane]
Sertoli cells; Lindane 50 µM
  dead cells: little if any dead cells
Sertoli cells; Lindane 50 µM, late stages
  propidium iodide staining of vacuolated cells: did not stain with propidium iodide
Sertoli cells; Lindane-treated cells
  apoptotic features (caspase 3 activation, PARP cleavage, chromatin condensation, nuclear pyknosis, mitochondria degeneration): absence of several apoptotic morphological and biochemical features
Sertoli cells; exposure for four days
  cell lysis on longer exposure: not associated with cell lysis
p38
  activation of Jun kinases or p38: not activated
CFTR Δex10; CFTR^+/+ PCT cells, Lindane 50 µM, forskolin 10 µM
  induction of Cl- current in PCT cells: induced a Cl- current
CFTR Δex10; CFTR^-/- PCT cells
  Lindane-induced Cl- current in CFTR^-/- PCT cells: total inhibition
CFTR Δex10; PCT cells
  anion selectivity sequence of induced current: Br^-≥ Cl^- >>I^-
  reversal potential of induced current: ~ 0 mV
Sertoli 42GPA9 cells; Lindane 50 µM, 24 h, electron microscopy
  size of autophagic vacuoles: 2-20 µm^2
Sertoli 42GPA9 cells; Lindane 50 µM, 24 h, electron microscopy, n = 20 cells, average
  autophagic vacuoles observed per cell: ~ 50
Sertoli 42GPA9 cells; Lindane 50 µM, DDT 1.8 µM, Bϕ 90 µM, PCP 15 µM, SB203580 10 µM, NH4Cl 5 mM, 24 h
  induction of vacuolation / autophagy by the chemical alone: powerful activator of autophagy
Sertoli 42GPA9 cells; Lindane treatment
  time of maximal vacuolation: 24 to 48 h
Sertoli 42GPA9 cells; upon removal of the chemical
  reversibility of vacuolation: reversible upon Lindane removal
